Test results as given in patent publication US8303964B2, “Viable non-toxic gram-negative bacteria” (priority 2006, dated 2012).
Values after ≈ are worked out from the molar mass of the structure shown. Where two headings read alike, the source gives them in different places. Bridge positions count the residues as written; N and C are the ends. Square brackets hold non-standard residues; d marks the D form. Peptide text beside a SMILES is read from it. * marks the point of attachment. Ileψ(thiazoline)Cys = CC[C@H](C)[C@H](N)C1=N[C@H](C(=O)*)CS1; dOrn = NCCC[C@@H](N)C(=O)O

Columns and labels:
[1] = target: kdsD (Escherichia coli, UniProt P45395); details: cited from earlier work; for kcat / Km: kdsD; for kcat: A5P to Ru5P or Ru5P to A5P, labelled by substrate
kdsD, sequence (P45395 whole entry): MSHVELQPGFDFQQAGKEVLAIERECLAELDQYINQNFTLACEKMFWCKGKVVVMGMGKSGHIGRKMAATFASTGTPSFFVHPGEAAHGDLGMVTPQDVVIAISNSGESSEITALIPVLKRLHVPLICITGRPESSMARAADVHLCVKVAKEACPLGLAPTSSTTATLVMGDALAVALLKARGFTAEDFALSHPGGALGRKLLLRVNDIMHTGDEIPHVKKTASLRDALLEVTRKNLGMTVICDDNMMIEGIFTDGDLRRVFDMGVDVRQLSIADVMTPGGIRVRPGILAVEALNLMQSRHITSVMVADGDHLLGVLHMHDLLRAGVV

[2] = target: gutQ (Escherichia coli, UniProt P17115); details: for alternate substrate, product appearance: determined by 31P-NMR
Description: This example describes enzyme assays used in experiments conducted during the course of the present invention. […] All plates contained internal Ru5P standards and appropriate A5P controls in triplicate. One unit of enzyme activity is defined as the conversion of 1 μmol of sugar phosphate per minute at 37° C.
This example describes the characterization of gutQ. […] After 10 minutes at 37° C., reactions containing the potential alternate substrates D-arabinose, D-ribose 5-phosphate, D-glucose 6-phosphate (G6P), D-glucose 1-phosphate, D-glucosamine 6-phosphate, or D-mannose 6-phosphate were quenched and the presence of ketose was determined. Product appearance for D/L-glyceraldehyde 3-phosphate, D-erythrose 4-phosphate, and D-fructose 6-phosphate was assayed by ^31P NMR. Kinetic constants were determined at 37° C. using the discontinuous microplate assay and were initiated by the addition of substrate. Concentrations typically ranged from 0.2Km to 10Km. […] Initial rates (v0) were determined in triplicate and fit to the standard Michaelis-Menten equation using nonlinear least-squares regression to determine Km and kcat values for both the formation and disappearance of Ru5P.

[3] = test system: KPM22; experiment: microbe, parasite or virus in culture; format: cell-based, E. coli; details: for MIC: Escherichia coli, read-out: Minimum Inhibitory Concentration KPM22
Description: (§1) The antibiotics used were from Sigma with the exception of cephaloridine, which was obtained from MicroSource Discovery Systems. Antibiotics were chosen based on their varying mode of action and entry into the cell. […] Colonies from LB agar plate were scraped and suspended in media (˜10^4 cells per mL) with varying concentrations of antibiotics. Cultures were incubated with shaking (˜200 rpm) at 37° C. for 18 hours at which point growth was scored by visual inspection.

[4] = test system: BW30270; experiment: microbe, parasite or virus in culture; format: cell-based, E. coli K-12; details: LB media, 37° C., 18 hours, lowest concentration that completely inhibited growth; for MIC: Escherichia coli, read-out: Minimum Inhibitory Concentration BW30270
Description: as §1

[5] = substrate: O=C(CO)[C@H](O)[C@H](O)COP(=O)(O)O; experiment: purified protein, by the assay type; details: other: gutQ, 37° C., pH 8.25
[6] = substrate: O=C[C@@H](O)[C@H](O)[C@H](O)COP(=O)(O)O; experiment: purified protein, by the assay type; details: other: gutQ, 37° C., pH 8.25
[7] = LB media, 37° C., 18 hours, lowest concentration that completely inhibited growth

O=C[C@@H](O)[C@H](O)[C@H](O)COP(=O)(O)O [A5P, d-arabinose 5-phosphate]
kcat [1]: 157 ± 4 s⁻¹
Km [1]: 610 ± 60 µM

O=C[C@H](O)[C@H](O)COP(=O)(O)O [D-erythrose 4-phosphate]
alternate substrate, product appearance [2]: served as alternate substrates

O=CC(O)COP(=O)(O)O [D/L-glyceraldehyde 3-phosphate]
alternate substrate, product appearance [2]: served as alternate substrates

CC[C@H](C)[C@H](N)C1=N[C@H](C(=O)N[C@@H](CC(C)C)C(=O)N[C@H](CCC(=O)O)C(=O)N[C@H](C(=O)N[C@H]2CCCCNC(=O)[C@H](CC(N)=O)NC(=O)[C@@H](CC(=O)O)NC(=O)[C@H](Cc3cnc[nH]3)NC(=O)[C@@H](Cc3ccccc3)NC(=O)[C@H]([C@@H](C)CC)NC(=O)[C@@H](CCCN)NC2=O)[C@@H](C)CC)CS1 [Bacitracin] ({Ileψ(thiazoline)Cys}-L[dE]IK[dOrn]I[dF]H[dD]N; lactam 4-C)
Minimum Inhibitory Concentration KPM22 [3, 7]: 512 µg/mL
Fold Difference in MIC ([3]; MIC BW30270 versus MIC KPM22): 8 fold
Minimum Inhibitory Concentration BW30270 [4]: 4096 µg/mL

CO[C@H]1/C=C/O[C@@]2(C)Oc3c(C)c(O)c4c(O)c(c(/C=N/N5CCN(C)CC5)c(O)c4c3C2=O)NC(=O)/C(C)=C\C=C\[C@H](C)[C@H](O)[C@@H](C)[C@@H](O)[C@@H](C)[C@H](OC(C)=O)[C@@H]1C [Rifampin]
MIC [4]: 16 µg/mL (≈ 19.4 µM)

O=C(N[C@H](CO)[C@H](O)c1ccc([N+](=O)[O-])cc1)C(Cl)Cl [Chloramphenicol]
MIC [3, 7]: 2 µg/mL (≈ 6.19 µM)
MIC [4]: 8 µg/mL (≈ 24.8 µM)

[Zn+2] [Zn^2+]
Inhibition by 10 μM Zn^2+ [2]: Yes
Inhibition by 10 μM Zn^2+ [1]: Yes

CC(=O)O[C@H]1C[C@@]2(C)[C@@H](C[C@@H](O)[C@H]3[C@@]4(C)CC[C@@H](O)[C@@H](C)[C@@H]4CC[C@@]32C)/C1=C(\CCC=C(C)C)C(=O)O [Fusidic Acid]
MIC [3, 7]: 2 µg/mL (≈ 3.87 µM)
Fold Difference in MIC ([3]; MIC BW30270 versus MIC KPM22): 256 fold
MIC [4]: 512 µg/mL (≈ 991 µM)

CC[C@H]1OC(=O)[C@H](C)[C@@H](O[C@H]2C[C@@](C)(OC)[C@@H](O)[C@H](C)O2)[C@H](C)[C@@H](O[C@@H]2O[C@H](C)C[C@H](N(C)C)[C@H]2O)[C@](C)(O)C[C@@H](C)C(=O)[C@H](C)[C@@H](O)[C@]1(C)O [Erythromycin]
MIC [3, 7]: 1 µg/mL (≈ 1.36 µM)

Polymyxin E
Minimum Inhibitory Concentration KPM22 [3, 7]: 0.06 µg/mL
Fold Difference in MIC ([3]; MIC BW30270 versus MIC KPM22): ~4 fold
Minimum Inhibitory Concentration BW30270 [4]: 0.25 µg/mL

CO[C@@H]1[C@@H](OC(N)=O)[C@@H](O)[C@H](Oc2ccc3c(O)c(NC(=O)c4ccc(O)c(CC=C(C)C)c4)c(=O)oc3c2C)OC1(C)C [Novobiocin]
MIC [3, 7]: 1 µg/mL (≈ 1.63 µM)

CN[C@H](CC(C)C)C(=O)N[C@H]1C(=O)N[C@@H](CC(N)=O)C(=O)N[C@H]2C(=O)N[C@H]3C(=O)N[C@H](C(=O)N[C@H](C(=O)O)c4cc(O)cc(O)c4-c4cc3ccc4O)[C@H](O)c3ccc(c(Cl)c3)Oc3cc2cc(c3O[C@@H]2O[C@H](CO)[C@@H](O)[C@H](O)[C@H]2O[C@H]2C[C@](C)(N)[C@H](O)[C@H](C)O2)Oc2ccc(cc2Cl)[C@H]1O [Vancomycin]
MIC [3, 7]: 32 µg/mL (≈ 22.1 µM)
MIC [4]: 256 µg/mL (≈ 177 µM)

O=C(Cc1cccs1)N[C@@H]1C(=O)N2C(C(=O)[O-])=C(C[n+]3ccccc3)CS[C@H]12 [Cephaloridine]
MIC [3, 7]: 4 µg/mL (≈ 9.63 µM)
Fold Difference in MIC ([3]; MIC BW30270 versus MIC KPM22): 1 fold
MIC [4]: 4 µg/mL (≈ 9.63 µM)

CC1(C)S[C@@H]2[C@H](NC(=O)[C@H](N)c3ccccc3)C(=O)N2[C@H]1C(=O)O [Ampicillin]
Fold Difference in MIC [3]: 2 fold
MIC ([3]; 18 h): 2 µg/mL (≈ 5.72 µM)
MIC [4]: 4 µg/mL (≈ 11.4 µM)

NC[C@H]1O[C@H](O[C@H]2[C@H](O)[C@@H](O[C@H]3O[C@H](CO)[C@@H](O)[C@H](N)[C@H]3O)[C@H](N)C[C@@H]2N)[C@H](O)[C@@H](O)[C@@H]1O [Kanamycin]
MIC [3, 7]: 1 µg/mL (≈ 2.06 µM)
Fold Difference in MIC ([3]; MIC BW30270 versus MIC KPM22): 16 fold
MIC [4]: 16 µg/mL (≈ 33 µM)

O=C(CO)[C@H](O)[C@H](O)COP(=O)(O)O [Ru5P, D-ribulose 5-phosphate]
kcat [1]: 255 ± 16 s⁻¹
Km [1]: 350 ± 80 µM

O=C(CO)[C@@H](O)[C@H](O)[C@H](O)COP(=O)(O)O [D-fructose 6-phosphate]
alternate substrate, product appearance [2]: served as alternate substrates

CCCCCCCCCCCCOS(=O)(=O)[O-].[Na+] [Sodium dodecyl sulfate (SDS), Sodium dodecyl sulfate]
MIC [3, 7]: 8 µg/mL
Fold Difference in MIC ([3]; MIC BW30270 versus MIC KPM22, listed as sodium dodecyl sulfate, sulfate): > 4000 fold
Fold Difference in MIC ([3]; MIC BW30270 versus MIC KPM22, sulfate): >4000 fold
MIC [4]: > 32000 µg/mL

O=C(O)CN(CCN(CC(=O)O)CC(=O)O)CC(=O)O [EDTA]
Activation by EDTA [2]: Yes
Activation by EDTA [1]: Yes

B1: gutQ (Escherichia coli K-12) (protein)
chain: MSEALLNAGRQTLMLELQEASRLPERLGDDFVRAANIILHCEGKVVVSGIGKSGHIGKKIAATLASTGTPAFFVHPAEALHGDLGMIESRDVMLFISYSGGAKELDLIIPRLEDKSIALLAMTGKPTSPLGLAAKAVLDISVEREACPMHLAPTSSTVNTLMMGDALAMAVMQARGFNEEDFARSHPAGALGARLLNKVHHLMRRDDAIPQVALTASVMDAMLELSRTGLGLVAVCDAQQQVQGVFTDGDLRRWLVGGGALTTPVNEAMTVGGTTLQSQSRAIDAKEILMKRKITAAPVVDENGKLTGAINLQDFYQAGII
Km [5]: 640 ± 80 µM
kcat [5]: 242 ± 11 s⁻¹
Km [6]: 1200 ± 100 µM
kcat [6]: 218 ± 4 s⁻¹
